Measurements taken from US20230181535A1, “UBIQUITIN-LIGASE INHIBITORS FOR THE TREATMENT OF CANCER” (FUNDACIÓN PROFESOR NOVOA SANTOS, priority 2020, published 2023).

Key:
HT-29 cells = assay: Soft agar-colony formation assay, HT-29; format: cell-based, human; conditions: 28 days
Procedure: Soft agar-colony formation assay was performed on 12-well plates in triplicates at a density of 5×10^3 MDCK and MDCK-Hakai cells/well, or 12×10^3 HT29 cells/well. Cells were seeded in medium with 0.5% low-melting agarose over a layer with 0.75% low-melting agarose (Lonza Rockland, Me., USA). Cells were treated with the indicated inhibitors and DMSO was used as vehicle. Treatment was refreshed every 3 days and, after 21 days for MDCK and MDCK-Hakai cells or 28 days for HT29 cells, number of colonies were quantified. Quantification of five randomly-selected fields of each condition was photographed with a Nikon Eclipse-TI microscope (objective 4×). Experiments were conducted with three triplicates and were repeated three times. Data are represented as mean±SD.

Hakai-MDCK cells = assay: Invasion assay, Hakai-MDCK; format: cell-based; conditions: treated 48 h
Procedure: (§1) For invasion assays, cells were treated with Hakin-1 or DMSO as vehicle for 48 h using 1% FBS during the last 24 hours. 3×10^5 MDCK, MDCK-Hakai or LoVo cells were seeded in a cell invasion chamber (Cell invasion assay kit, Chemicon International) containing medium with 2% FBS. After 72 hours for MDCK and MDCK-Hakai Invasive and 16 h for LoVo cells, invasive cells invaded that reach the lower chamber containing 30% FBS were fixed and stained with crystal violet (Sigma Aldrich, St Louis, Mo.) following the manufacturer's specifications. For migration assays, HT29 cells were cultured with Hakin-1 or DMSO as vehicle for 48 h, using medium without serum the last 24 h. In the cell migration chamber were seeded 3×10^5 HT29 cells (Cell migration kit, Millipore, Bedford, Mass.) containing medium without serum. After 16 h, migrated cells in the lower chamber containing serum with 30% FBS were stained with crystal violet and counted following the manufacturer's specifications. For both invasion and migration assays cells were counted in five fields photographed with an Olympus microscope using a 20× objective, experiments were performed in triplicates for each condition and the assays were repeated at least three times. Results are expressed as mean±SD.

[1] = test system: Hakai-dependent ubiquitination of the E-cadherin complex; assay: Hakai-dependent ubiquitination of the E-cadherin complex (immunoprecipitation); format: cell-based; conditions: 293T cells transfected with Flag-Hakai, myc-E-cadherin, v-Src, HA-ubiquitin; IP anti-E-cadherin
Procedure: For immunoprecipitation experiments, 293 cells were transfected with 3 μg Src, 4 μg Flag-Hakai, and 2 μg HA-ubiquitin and 3 μg E-cadherin with Lipofectamin 2000 (Invitrogen, UK). 24 h after transfection, cells were lysed for 20 min in 1 ml of 1% Triton X-100 lysis buffer (20 mM Tris-HCl pH 7.5, 150 mM NaCl and 1% Triton X-100) containing 10 μg/ml leupeptin, 10 μg/ml aprotinin and 1 mM phenylmethanesulphonyl fluoride (PMSF), supplemented with 10 mM N-ethylmaleimide and 2.5 mM sodium orthovanadate. After centrifugation at 18.000 g for 10 min, the supernatants were immunoprecipitated for 2 h with 2 μg of anti-E-cadherin antibody bound to 60 μl of protein G PLUS-Agarose beads, followed by SDS-polyacrylamide gel electrophoresis (PAGE) and western blotting with the indicated antibodies as previously reported.

[2] = test system: prostate cancer PC-3 cells; assay: BrdU proliferation assay, PC-3; format: cell-based, human; conditions: 48 h
Procedure: (§2) For BrdU assays, 1×10^4 of indicated cells were plated per well into a 96-well plate. After 24 h, cells were treated with the indicated inhibitors for 48 h. Three independent experiments were plated with six replicates per each condition. Cells were treated with […] BrdU for 2 h. BrdU incorporation into newly synthesized DNA was measured using a cell proliferation colorimetric immunoassay kit according to the manufacturer's instructions (Roche, Switzerland). Results are expressed as mean±S.D. Results are represented as percentage of positive cells (mean±S.D) of three independent experiments.

[3] = Hepatocyte stability, mouse; format: in vitro ADME; conditions: cryopreserved mouse hepatocytes in suspension, read-out: half-life (T½)
Procedure: (§3) Test compound (final substrate concentration 3 μM; final DMSO concentration 0.25%) were pre-incubated at 37° C., prior to the addition of a suspension of cryopreserved hepatocytes (final cell density 0.5×10^6 viable cells/mL in Williams E media supplemented with 2 mM L glutamine and 25 mM HEPES) to initiate the reaction. The reactions were stopped with acetonitrile containing internal standard at the appropriate time points ([…]). The termination plates were centrifuged at 2500 rpm at 4° C. for 30 minute to precipitate the protein. Following the hepatocyte stability assays, the samples were utilized for metabolite profiling. Hepatocyte stability in mouse and human was performed by using the incubation of tested compound (3 μM) with cryopreserved hepatocytes in suspension. Samples were removed at 6 time points over the course of a 60 min experiment and remaining test compound at each time point was analysed by using LC-MS/MS. Then, data was analysed and an intrinsic clearance (CLint) with standard error and half-life (t½) reported.

LoVo cells = assay: Invasion assay, LoVo; format: cell-based; conditions: treated 48 h
Procedure: as §1

[4] = test system: Hakai-transformed MDCK cells; assay: Phase-contrast cell phenotype, Hakai-MDCK; format: cell-based; conditions: Hakai-transformed MDCK cells (mesenchymal phenotype)
Procedure: MDCK, HEK293T, HepG2, MCF7 and ACHN cells were cultured in Dulbecco's Modified Eagles Medium (DMEM). MDCK stably expressing Hakai cells (Hakai-MDCK) were previously reported and were growth in DMEM with G418 (800 μg/ml). […] LoVo and PC-3 cells were cultured in F-12K Medium (Kaighn's Modification of Ham's F-12 Medium) and HT-29 and HCT116 cells in McCoy's 5a Medium Modified. 5637 cells were cultured in RPMI medium. All culture media were supplemented with 1% penicillin/streptomycin and 10% of heat-inactivated fetal bovine serum (FBS) at 37° C. in a humidified incubator with 5% CO2. Cells were monthly tested for mycoplasma contamination and used only for 1-3 months after defrosted. LoVo and HT29 cells were authenticated with the StemElite ID system (Promega). For phase-contrast images, culture cells were photographed with a Nikon Eclipse-TI microscope.

[5] = test system: non-cancerous HEK293T cells; assay: MTT cell viability assay, HEK293T; format: cell-based, human; conditions: concentrations tested in the previous assays
Procedure: For cytotoxicity assays, 1×10^4 cells were seeded per well into a 96-well plate. After 24 h cells were treated with the indicated inhibitors for 72 h and a MTT colorimetric cell viability assay was performed following manufacturer's instructions (Sigma Aldrich, St Louis, Mo.). Absorbance was measured at 570 and 630 nm using a Multiskan Plus Reader (Nanoquant Infinite M200 Tecan Trading AG, Switzerland). Dose-response curves were designed with Graph Pad Prism Software and the half-maximal inhibitory concentration (IC50) values were calculated. Represented data are the mean±SEM of at least three independent experiments with six replicates per condition.

[6] = test system: mouse-cryopreserved hepatocytes; assay: Hepatocyte stability, mouse; format: in vitro ADME; conditions: 3 μM
Procedure: as §3

[7] = test system: Colon cancer HCT116 cells; assay: BrdU proliferation assay, HCT116; format: cell-based, human; conditions: 48 h
Procedure: as §2

Row | SMILES | colony formation in soft agar (HT-29 cells) | cell invasion (Hakai-MDCK cells) | Hakai-dependent ubiquitination of E-cadherin complex [1] | cell proliferation (BrdU) [2] | half-life at 3 μM [3] [min] | cell invasion (LoVo cells) | cell phenotype by phase contrast [4] | cytotoxic effect (cell viability, MTT) [5] | compound remaining after 60 min [6] | cell proliferation (BrdU) [7]
1 | O=C(O)c1ccc(-n2nnnc2SCC(=O)c2ccc([N+](=O)[O-])cc2)cc1 [Hakin-1, 4-(5-[2-(4-nitrophenyl)-2-oxoethyl]thiol-1H-tetrazol-1-yl)benzoic acid] | robust inhibition of colony formation | decreased cell invasion | reduction of Hakai-dependent ubiquitination of E-cadherin complex | inhibited cell proliferation | 5.92 | strongly reduced cell invasion | induction of an epithelial phenotype |  |  | 
2 | O=C(O)c1ccc(-n2nnnc2SCC(O)c2ccc([N+](=O)[O-])cc2)cc1 (stereo not shown) [MKH1] |  |  |  |  |  |  |  | no cytotoxic effect | 95%-100% | inhibit cell proliferation
